Assay results from ChEMBL document CHEMBL1201862, “PubChem BioAssay data set” (2004).
Active and inactive are the calls of the source.

Assays:
[1] = Luminescence Cell-Based Dose Confirmation HTS to Identify Activators of 5'UTR Stem-Loop Driven Alpha-Synuclein mRNA Translation in H4 Neuroglioblastoma Cells. [Related pubchem assays: 1829 (Project Summary), 1814 (Primary HTS)]; assay type: functional
H4 = assay: Luminescence Cell-Based Dose Response HTS to Identify Activators of 5'UTR Stem-Loop Driven Prion Protein mRNA Translation in H4 Neuroglioblastoma Cells. [Related pubchem assays: 1829 (Project Summary), 1814 (Primary HTS)]; assay type: functional; settings: Homo sapiens
[2] = Luminescence Cell-Based Dose Response HTS to Identify Activators of Luciferase Translation or Activity in H4 […] Cells. [Related pubchem assays: 1829 (Project Summary), 1814 (Primary HTS)]; assay type: functional
[3] = molecular target: T1, Rac GTPase-activating protein 1 (Homo sapiens, UniProt Q9H0H5); assay: blockers of MgcRacGAP-driven Rac1 GTP hydrolysis – biochemical, ADP Hunter fluorescence, primary and confirmatory, confirmation (AID 624330); assay type: functional
T1 sequence (Q9H0H5 whole entry): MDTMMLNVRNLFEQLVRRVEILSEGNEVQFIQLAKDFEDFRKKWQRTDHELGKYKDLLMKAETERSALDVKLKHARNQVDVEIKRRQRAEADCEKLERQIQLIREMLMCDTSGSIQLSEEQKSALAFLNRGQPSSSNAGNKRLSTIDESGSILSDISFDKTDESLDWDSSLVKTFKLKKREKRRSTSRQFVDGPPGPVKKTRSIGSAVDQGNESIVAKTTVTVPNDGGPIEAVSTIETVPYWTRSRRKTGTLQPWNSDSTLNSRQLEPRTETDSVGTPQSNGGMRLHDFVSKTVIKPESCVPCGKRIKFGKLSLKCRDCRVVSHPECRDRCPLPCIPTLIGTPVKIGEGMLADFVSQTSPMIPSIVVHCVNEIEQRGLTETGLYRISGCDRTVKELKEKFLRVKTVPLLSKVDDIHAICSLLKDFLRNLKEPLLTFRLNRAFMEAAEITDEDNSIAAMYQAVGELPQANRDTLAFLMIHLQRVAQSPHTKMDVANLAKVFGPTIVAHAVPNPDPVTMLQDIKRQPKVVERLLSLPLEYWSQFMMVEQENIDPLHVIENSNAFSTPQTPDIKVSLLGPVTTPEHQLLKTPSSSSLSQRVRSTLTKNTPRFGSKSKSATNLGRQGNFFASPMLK

[4] = Trypanosoma cruzi growth suppression in host cells – NIH3T3 host cells, beta-gal luminescence, confirmation (AID 2044); assay type: functional, cell-based;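 further: intracellular parasites grown in NIH/3T3 mouse fibroblasts as host cells; luminescent beta-galactosidase reporter signal from transgenic T. cruzi replicating inside host cells; inhibitors lower the luminescence signal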
[5] = NIH3T3 cell viability loss – ATP luminescence, mouse fibroblasts, counter-screen, dose response (AID 2010); assay type: functional, cell-based;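 further: cells exposed to compound for about 90 hours before reading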
[6] = loss of viability in HepG2 cells – cell-based, CellTiter-Glo, cherry-picked, cytotoxicity control for Shn3 inhibitor project, dose response (AID 624134); assay type: functional
[7] = reduction of Shn3 3'UTR-driven luciferase in osteoblasts – cell-based, Clone20 osteoblasts, firefly luciferase, cherry-picked, dose response (AID 624132); assay type: functional;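 further: firefly luciferase luminescence from reporter carrying the Shn3 3'UTR in osteoblasts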
Cytochrome P450 2C9 = Cytochrome P450 2C9 (Homo sapiens, UniProt P11712)
Sequence of Cytochrome P450 2C9 (P11712 whole entry, the tested form may be a part): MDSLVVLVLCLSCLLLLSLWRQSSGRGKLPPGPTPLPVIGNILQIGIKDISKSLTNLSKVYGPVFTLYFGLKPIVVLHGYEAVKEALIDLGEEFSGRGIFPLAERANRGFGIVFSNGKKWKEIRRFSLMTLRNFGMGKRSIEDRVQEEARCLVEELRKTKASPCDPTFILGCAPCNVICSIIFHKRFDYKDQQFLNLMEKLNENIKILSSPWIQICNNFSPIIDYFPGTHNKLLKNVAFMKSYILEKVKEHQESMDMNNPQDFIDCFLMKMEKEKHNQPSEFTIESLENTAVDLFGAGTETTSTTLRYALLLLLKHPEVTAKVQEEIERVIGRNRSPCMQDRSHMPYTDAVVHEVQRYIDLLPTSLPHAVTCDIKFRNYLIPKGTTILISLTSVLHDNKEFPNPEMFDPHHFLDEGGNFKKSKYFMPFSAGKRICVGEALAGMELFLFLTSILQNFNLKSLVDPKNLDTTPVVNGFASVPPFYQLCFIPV

[8] = molecular target: T2, Carboxy-terminal domain RNA polymerase II polypeptide A small phosphatase 1 (Homo sapiens, UniProt Q9GZU7); assay: CTDSP1 inhibitors, concentration-response, biochemical, absorbance readout, ultra-high-throughput screen actives (AID 540297); assay type: functional
T2 sequence (Q9GZU7 whole entry): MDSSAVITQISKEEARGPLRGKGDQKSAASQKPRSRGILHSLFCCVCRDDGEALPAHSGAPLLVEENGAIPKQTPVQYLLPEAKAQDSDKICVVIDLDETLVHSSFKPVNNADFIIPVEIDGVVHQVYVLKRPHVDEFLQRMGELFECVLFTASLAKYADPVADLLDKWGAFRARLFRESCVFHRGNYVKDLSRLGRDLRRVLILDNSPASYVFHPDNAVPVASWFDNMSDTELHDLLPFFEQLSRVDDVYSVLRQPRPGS

[9] = P. falciparum Dd2 growth inhibitors, dose response, SYBR Green, cherry-picked samples (AID 1159567); assay type: functional, cell-based
Cytochrome P450 1A2 = molecular target: T3, Cytochrome P450 1A2 (Homo sapiens, UniProt P05177);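 further: PubChem cytochrome P450 panel assay, CYP1A2 panel member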
T3 sequence (P05177 whole entry): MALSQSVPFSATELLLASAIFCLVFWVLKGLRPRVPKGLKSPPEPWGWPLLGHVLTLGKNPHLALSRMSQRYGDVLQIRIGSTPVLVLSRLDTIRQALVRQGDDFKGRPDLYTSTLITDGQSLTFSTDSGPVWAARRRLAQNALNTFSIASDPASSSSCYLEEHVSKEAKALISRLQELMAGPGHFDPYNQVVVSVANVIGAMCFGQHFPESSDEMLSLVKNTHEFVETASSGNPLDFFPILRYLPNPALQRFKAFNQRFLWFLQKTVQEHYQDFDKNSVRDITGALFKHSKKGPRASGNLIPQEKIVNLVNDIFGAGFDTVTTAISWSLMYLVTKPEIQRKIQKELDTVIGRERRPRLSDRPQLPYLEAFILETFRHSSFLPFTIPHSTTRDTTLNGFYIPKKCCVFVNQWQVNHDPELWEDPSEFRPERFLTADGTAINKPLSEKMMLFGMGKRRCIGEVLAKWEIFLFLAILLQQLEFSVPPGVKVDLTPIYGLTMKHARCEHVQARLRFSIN

Cytochrome P450 3A4 = Cytochrome P450 3A4 (Homo sapiens, UniProt P08684);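 further: CYP3A4 tested as one member of a cytochrome P450 panel screen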
Sequence of Cytochrome P450 3A4 (P08684 whole entry): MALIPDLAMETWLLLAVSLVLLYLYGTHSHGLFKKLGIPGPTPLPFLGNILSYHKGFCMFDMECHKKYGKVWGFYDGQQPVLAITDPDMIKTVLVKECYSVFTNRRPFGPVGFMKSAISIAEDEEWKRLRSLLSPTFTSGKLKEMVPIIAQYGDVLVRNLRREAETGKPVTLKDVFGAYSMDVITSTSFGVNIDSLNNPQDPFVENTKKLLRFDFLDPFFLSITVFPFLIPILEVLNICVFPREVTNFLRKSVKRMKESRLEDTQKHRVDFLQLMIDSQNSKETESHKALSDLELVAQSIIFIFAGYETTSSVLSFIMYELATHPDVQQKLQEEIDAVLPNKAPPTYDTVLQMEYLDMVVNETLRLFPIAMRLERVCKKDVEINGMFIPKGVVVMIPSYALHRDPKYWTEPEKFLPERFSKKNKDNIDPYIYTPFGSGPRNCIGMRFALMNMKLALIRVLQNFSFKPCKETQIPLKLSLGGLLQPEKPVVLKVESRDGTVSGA

Cytochrome P450 2C19 = Cytochrome P450 2C19 (Homo sapiens, UniProt P33261); assay: Cytochrome panel assay with activity outcomes. Panel member name: p450-cyp2c19 Compounds with AC50 equal or less than 10 uM are considered active; assay type: functional
Sequence of Cytochrome P450 2C19 (P33261 whole entry): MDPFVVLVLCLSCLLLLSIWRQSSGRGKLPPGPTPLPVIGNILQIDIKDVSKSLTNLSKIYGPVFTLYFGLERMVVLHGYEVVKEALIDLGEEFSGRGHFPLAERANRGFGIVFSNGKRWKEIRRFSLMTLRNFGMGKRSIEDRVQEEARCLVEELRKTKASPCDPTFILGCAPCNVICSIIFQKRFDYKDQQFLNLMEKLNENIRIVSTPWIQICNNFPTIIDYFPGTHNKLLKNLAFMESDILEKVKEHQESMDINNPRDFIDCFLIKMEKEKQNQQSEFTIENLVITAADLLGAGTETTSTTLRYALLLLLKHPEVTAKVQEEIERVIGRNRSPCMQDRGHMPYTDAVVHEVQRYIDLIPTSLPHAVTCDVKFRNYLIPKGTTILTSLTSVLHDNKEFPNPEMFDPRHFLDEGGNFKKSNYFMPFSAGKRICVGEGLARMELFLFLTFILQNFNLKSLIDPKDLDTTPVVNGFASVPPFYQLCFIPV

Cytochrome P450 2D6 = Cytochrome P450 2D6 (Homo sapiens, UniProt P10635);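 further: CYP2D6 member of a cytochrome P450 panel assay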
Sequence of Cytochrome P450 2D6 (P10635 whole entry): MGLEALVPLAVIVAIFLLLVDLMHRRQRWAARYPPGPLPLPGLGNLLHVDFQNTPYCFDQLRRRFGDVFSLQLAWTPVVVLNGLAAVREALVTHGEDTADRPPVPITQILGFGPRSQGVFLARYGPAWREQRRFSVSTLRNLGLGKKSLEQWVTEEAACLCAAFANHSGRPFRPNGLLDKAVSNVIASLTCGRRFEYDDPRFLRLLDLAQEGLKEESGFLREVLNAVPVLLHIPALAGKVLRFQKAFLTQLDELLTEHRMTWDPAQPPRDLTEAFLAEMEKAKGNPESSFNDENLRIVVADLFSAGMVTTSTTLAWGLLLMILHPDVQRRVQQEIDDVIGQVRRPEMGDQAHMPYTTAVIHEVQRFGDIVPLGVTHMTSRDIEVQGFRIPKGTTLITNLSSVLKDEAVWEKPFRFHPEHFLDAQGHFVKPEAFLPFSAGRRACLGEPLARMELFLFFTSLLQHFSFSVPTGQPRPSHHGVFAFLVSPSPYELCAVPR

[10] = viability of uninfected HEp-2 cells – cell-based, HTS, cytotoxicity control for RSV inhibitor project, dose response (AID 2410); assay type: functional; settings: human respiratory syncytial virus

Sc1nnc(Cn2c(-c3ccccn3)nc3ccccc32)n1-c1ccc2c(c1)OCCO2
EC50 [1]: 12.5 µM (active)
EC50 (H4): 29.5 µM (active)
EC50 [2]: 14.9 µM (active)

c1cc(CN2CCN(C3CCCCCC3)CC2)ccn1
IC50 [3]: 92 µM (active)

Cc1cc(OCCCN2CCN(Cc3ccccc3)CC2)ccc1[N+](=O)[O-]
IC50 [3]: 62 µM (active)
EC50 [4]: 0.156 µM (active)
EC50 [5]: > 60 µM (inconclusive)

CC(C)(C)c1nc(NCCN2CCOCC2)c2nnn(Cc3ccccc3Cl)c2n1
AC50 [6]: 56.5 µM (active)
AC50 [7]: 8.85 µM (active)

COc1ccc(-c2nc3cnc(OC)nc3n(Cc3cccc(OC)c3)c2=O)cc1
AC50 (Cytochrome P450 2C9): 3.16 µM (inconclusive)

COc1ccc(/C=C2\C(=O)NC(=S)N(C)C2=O)cc1C
IC50 [8]: 0.632 µM (active)
IC50 [3]: 21.4 µM (active)

COc1ccc(S(=O)(=O)N2CCC(N3CCN(c4ccccc4OC)CC3)CC2)cc1
IC50 [3]: 121 µM (active)

O=S(=O)(c1ccccc1)N1CCC[C@@]2(CCN(c3ccccc3)C2)C1
AC50 (Cytochrome P450 2C9): 2.51 µM (inconclusive)

COCC(=O)Nc1ccc2c(c1)C(=O)N(C)C[C@H](OC)[C@H](C)CN(Cc1cccc(F)c1)[C@@H](C)CO2
AC50 [9]: 5.34 µM (active)

O=C(O)Cn1cc(/C=C2\C(=O)NC(=O)N(c3ccc(Cl)cc3)C2=O)c2ccccc21
IC50 [3]: 255 µM (active)

c1ccc(CNC2=NN=C(c3ccccc3)CS2)cc1
EC50 (H4): 24.2 µM (active)
EC50 [2]: 0.293 µM (active)

Cc1cccc(C(=O)NNC(=O)c2ccc(-c3ccccc3)cc2)c1
IC50 [8]: 5.8 µM (active)

Cc1cc(C=C(C#N)C#N)c(C)n1-c1ccccc1
AC50 (Cytochrome P450 1A2): 2.24 µM (inconclusive)
AC50 (Cytochrome P450 2C9): 1.12 µM (inconclusive)

CCc1cc(-c2[nH]nc(CCC(=O)O)c2-c2nc3ccccc3n2C)c(O)cc1O
IC50 [3]: 122 µM (active)

CCN1C(=O)/C(=C\N2CCCCCC2)SC1=S
EC50 [1]: > 120 µM (not active)
EC50 (H4): 12.8 µM (active)
EC50 [2]: 7.47 µM (active)

Cc1sc2ncnc(N3CCC(C(=O)Nc4nc5ccc(Cl)cc5s4)CC3)c2c1C
EC50 [1]: 8.58 µM (active)
EC50 (H4): 28.5 µM (active)
EC50 [2]: 19.2 µM (active)

Cc1nc(SCC(=O)NCCc2ccccc2)c2oc3ccccc3c2n1
AC50 (Cytochrome P450 1A2): 0.562 µM (inconclusive)
AC50 (Cytochrome P450 3A4): 39.8 µM (inconclusive)
AC50 (Cytochrome P450 2C9): 0.398 µM (inconclusive)

CCCCc1nc2cc(C(=O)N(C)C3CCOCC3)ccc2o1
EC50 [1]: 1.36 µM (active)
EC50 (H4): 0.399 µM (active)
EC50 [2]: 15 µM (active)

CCN1CCN(CCOc2cccc(Cl)c2Cl)CC1
IC50 [3]: 70.4 µM (active)
EC50 [4]: 0.151 µM (active)
EC50 [5]: > 60 µM (not active)

O=C(C1CCCC1)N1CC(=O)N2[C@H](C1)[C@@H](c1ccc(C#CCc3ccccc3)cc1)[C@@H]2CO
AC50 [9]: 4.51 µM (active)

Cc1nc2ccccn2c1C(=O)C1=C(O)C(=O)N(CCN2CCOCC2)C1c1cccnc1 (stereo not given)
AC50 (Cytochrome P450 2C9): 17.8 µM (inconclusive)

Cc1ccc(C(=O)NCC2CCCO2)cc1N1CCCC1=O (stereo not given)
AC50 (Cytochrome P450 2C19): inconclusive
AC50 (Cytochrome P450 2C9): 2.82 µM (inconclusive)

Cc1ccc(NC(=O)C2CCC(C(C)(C)C)CC2)cc1S(=O)(=O)N1CCOCC1 (stereo not given)
AC50 [6]: 53.1 µM (active)
AC50 [7]: 12.2 µM (active)

COc1ccc(NC(=O)c2c3c(nc4ccccc24)CCC3)cc1S(=O)(=O)N1CCOCC1
IC50 [8]: 3.75 µM (active)

COc1cccc(CN2CCN(Cc3cc(OC)c(OC)c(OC)c3)CC2)c1OC
IC50 [3]: 74.8 µM (active)

CCCCNC(=O)CSc1nc2ccccc2c(=O)n1CCNC(C)=O
AC50 (Cytochrome P450 2C9): 22.4 µM (inconclusive)

C=CC[C@@H]1C=C[C@H](O/N=C(\C)CCN2CCc3nc(-c4ccccc4)c(-c4ccccc4)cc3C2)[C@H](CO)O1
AC50 (Cytochrome P450 2C9): 0.0794 µM (inconclusive)

COc1ccc(N2C(=O)CC(Sc3nc(C)cc(C)c3C#N)C2=O)cc1 (stereo not given)
EC50 (H4): 25.4 µM (active)
EC50 [2]: 14.6 µM (active)

COc1ccc(-n2nc(C(=O)NCC(=O)N3CCN(c4ccccc4F)CC3)c3ccccc3c2=O)cc1
EC50 [1]: 27.8 µM (active)
EC50 (H4): 95.7 µM (active)
EC50 [2]: 8.08 µM (active)

CCOCC(=O)Nc1nnc(C2CCCCC2)s1
EC50 [1]: > 120 µM (not active)
EC50 (H4): > 120 µM (not active)
EC50 [2]: 83 µM (active)

Cc1c(N2C(=O)/C(=C3/C(=O)N(C)c4ccccc43)SC2=S)c(=O)n(-c2ccccc2)n1C
AC50 (Cytochrome P450 1A2): 25.1 µM (inconclusive)
AC50 (Cytochrome P450 2D6): 7.94 µM (inconclusive)
AC50 (Cytochrome P450 3A4): 15.8 µM (inconclusive)
AC50 (Cytochrome P450 2C9): 12.6 µM (inconclusive)

CCOC(=O)c1cnn(-c2ncnc3c2cnn3C)c1N
EC50 [1]: 31.6 µM (active)
EC50 (H4): 90.5 µM (active)
EC50 [2]: 10.9 µM (active)

COc1ccc(-n2c(=O)c(C)nc3cnc(Oc4cccc(Cl)c4)nc32)cc1
AC50 (Cytochrome P450 2D6): 25.1 µM (inconclusive)
AC50 (Cytochrome P450 2C19; read-out: AC50): 39.8 µM (inconclusive)
AC50 (Cytochrome P450 3A4): 3.16 µM (inconclusive)
AC50 (Cytochrome P450 2C9): 25.1 µM (inconclusive)

CCn1c(=O)n(CC)c2cc(N3CCCC3)c(NC(=O)c3ccccc3)cc21
IC50 [3]: 91 µM (active)

COc1cccc(NC(=O)CN(C)C(=O)c2cc(-c3ccco3)nc3ccccc23)c1
IC50 [8]: 6.41 µM (active)

COc1ccc(NC(=O)Cn2nnc(-c3ccccc3NC(=O)c3cccs3)n2)cc1
EC50 [1]: > 120 µM (not active)
EC50 (H4): > 120 µM (not active)
EC50 [2]: 3.68 µM (active)

O=S(=O)(Nc1ccc2[nH]c(-c3ccco3)nc2c1)c1ccccc1
EC50 [1]: 14.8 µM (active)
EC50 (H4): 17.3 µM (active)
EC50 [2]: 36.8 µM (active)

Cc1ccc(C2(C)NC(=O)N(CC(=O)Nc3ccc(-c4nc5ccc(C)cc5s4)cc3)C2=O)cc1 (stereo not given)
CC50 [10]: 41.5 µM (active)

CC(=O)Nc1ccc2[nH]c(C3CCCCC3)nc2c1
AC50 (Cytochrome P450 2C19): inconclusive
AC50 (Cytochrome P450 2C9): 17.8 µM (inconclusive)

COc1ccc(Oc2ncc3nc(-c4cccc(C#N)c4)c(=O)n(Cc4cccc(OC)c4)c3n2)cc1
AC50 (Cytochrome P450 2C9): 2.51 µM (inconclusive)

O=C(NN=C1CCCC1)c1cc(O)cc(O)c1
IC50 [8]: 10.2 µM (active)

CC(C)(C)[S@@+]([O-])N1Cc2cc(C(=O)N[C@@H]3CCN(Cc4ccccc4)C3)nc(-c3cccc(-c4ccncc4)c3)c2[C@H]1CCO
AC50 [9]: 6.63 µM (active)

Cc1ccnc(NC(=O)c2ccc(NC(=O)c3ccco3)cc2)c1
EC50 (H4): 11.9 µM (active)
EC50 [2]: 1.37 µM (active)

CCn1c(O)cc(=O)nc1SCC(=O)Nc1ccc(C)cc1
EC50 [1]: > 120 µM (not active)
EC50 (H4): > 120 µM (not active)
EC50 [2]: > 120 µM (not active)
